In patent publication US12660819B2, “Herbicidal derivatives” (SYNGENTA CROP PROTECTION AG, priority 2020, dated 2026):

How the values were obtained:
Type in all cases: in vivo
Setaria faberi (SETFA) [1] = assay: Pre-emergence Test (glasshouse, percentage damage to the plant); conditions: 1000 g/ha unless otherwise stated, five-point scale
[2] = tested on: Amaranthus retoflexus (AMARE); assay: as above; conditions: 1000 g/ha unless otherwise stated, five-point scale
[3] = tested on: Abutilon theophrasti (ABUTH); assay: as above; conditions: 1000 g/ha unless otherwise stated, five-point scale
Zea mays (ZEAMX) [4] = assay: Post-emergence Test (glasshouse, percentage damage to the plant); conditions: post-emergence spray, 1000 g/ha unless otherwise stated, evaluated after 13 days
How it was run: (§1)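 Percentage damage to the plant, assessed 13 days after application and scored 1–5 in 20% bands. Pots sown in standard soil received compound at 1000 g/ha unless otherwise stated, sprayed under 24/16 °C, 14 h light, 65% humidity.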

[5] = tested on: Abutilon theophrasti (ABUTH); assay: as above; conditions: post-emergence spray, 1000 g/ha unless otherwise stated, evaluated after 13 days
How it was run: (§2)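 Rate 1000 g/ha unless stated otherwise. Vehicle: acetone/water 50:50 with 0.5% Tween 20, diluted into aqueous spray. Timing: spray after sowing, read 13 days later. Score: 5=81-100%, 4=61-80%, 3=41-60%, 2=21-40%, 1=0-20% damage.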

[6] = tested on: Ipomoea hederacea (IPOHE); assay: as above; conditions: post-emergence spray, 1000 g/ha unless otherwise stated, evaluated after 13 days
How it was run: as §1

[7] = tested on: Amaranthus retoflexus (AMARE); assay: as above; conditions: post-emergence spray, 1000 g/ha unless otherwise stated, evaluated after 13 days
How it was run: as §2

Setaria faberi (SETFA) [8] = assay: as above; conditions: post-emergence spray, 1000 g/ha unless otherwise stated, evaluated after 13 days
How it was run: as §1

[9] = tested on: Echinochloa crus-galli (ECHCG); assay: as above; conditions: post-emergence spray, 1000 g/ha unless otherwise stated, evaluated after 13 days
How it was run: as §2

[10] = tested on: Echinochloa crus-galli (ECHCG); assay: Pre-emergence Test (glasshouse, percentage damage to the plant); conditions: 1000 g/ha unless otherwise stated, five-point scale
Zea mays (ZEAMX) [11] = assay: as above; conditions: 1000 g/ha unless otherwise stated, five-point scale
[12] = tested on: Ipomoea hederacea (IPOHE); assay: as above; conditions: 1000 g/ha unless otherwise stated, five-point scale

| Structure (SMILES) | percentage damage to the plant, SETFA (Setaria faberi (SETFA) [1]) | percentage damage to the plant, AMARE [2] | percentage damage to the plant, ABUTH [3] | Post-emergence Test ZEAMX, percentage damage to the plant (five-point scale) (Zea mays (ZEAMX) [4]) | Post-emergence Test ABUTH, percentage damage to the plant (five-point scale) [5] | Post-emergence Test IPOHE, percentage damage to the plant (five-point scale) [6] | Post-emergence Test AMARE, percentage damage to the plant (five-point scale) [7] | Post-emergence Test SETFA, percentage damage to the plant (five-point scale) (Setaria faberi (SETFA) [8]) | Post-emergence Test ECHCG, percentage damage to the plant (five-point scale) [9] | percentage damage to the plant, ECHCG [10] | percentage damage to the plant, ZEAMX (Zea mays (ZEAMX) [11]) | percentage damage to the plant, IPOHE [12] |
| --- | --- | --- | --- | --- | --- | --- | --- | --- | --- | --- | --- | --- |
| CCn1c(C)c(-c2ccc(SC)cc2)c(=O)c(C(=O)O)c1-c1ccc(Cl)c(Cl)c1 [Compound 93, 2-(3,4-dichlorophenyl)-1-ethyl-6-methyl-5-(4-methylsulfanylphenyl)-4-oxo-pyridine-3-carboxylic acid] | 4 (4=61-80%) | 1 (1=0-20%) | 1 (1=0-20%) | 1 (1=0-20%) | 2 (2=21-40%) | 2 (2=21-40%) | 1 (1=0-20%) | 2 (2=21-40%) | 3 (3=41-60%) | 3 (3=41-60%) | 1 (1=0-20%) | 1 (1=0-20%) |
| CCn1c(C)c(-c2cc(F)cc(OCC(F)(F)F)c2)c(=O)c(C(=O)O)c1-c1ccc(Cl)c(Cl)c1 [Compound 94, 2-(3,4-dichlorophenyl)-1-ethyl-5-[3-fluoro-5-(2,2,2-trifluoroethoxy)phenyl]-6-methyl-4-oxo-pyridine-3-carboxylic acid] | 1 (1=0-20%) | 1 (1=0-20%) | 1 (1=0-20%) | 1 (1=0-20%) | 1 (1=0-20%) | 1 (1=0-20%) | 1 (1=0-20%) | 1 (1=0-20%) | 1 (1=0-20%) | 1 (1=0-20%) | 1 (1=0-20%) | 1 (1=0-20%) |
| CCn1c(C)c(-c2ccc(OC(F)(F)F)cc2)c(=O)c(C(=O)O)c1-c1ccc(Cl)c(Cl)c1 [Compound 95, 2-(3,4-dichlorophenyl)-1-ethyl-6-methyl-4-oxo-5-[4-(trifluoromethoxy)phenyl]pyridine-3-carboxylic acid] | 4 (4=61-80%) | 1 (1=0-20%) | 1 (1=0-20%) | 2 (2=21-40%) | 3 (3=41-60%) | 2 (2=21-40%) | 3 (3=41-60%) | 3 (3=41-60%) | 3 (3=41-60%) | 2 (2=21-40%) | 1 (1=0-20%) | 1 (1=0-20%) |
| CCOc1ccc(-c2c(C)n(CC)c(-c3ccc(Cl)c(Cl)c3)c(C(=O)O)c2=O)cc1 [Compound 96, 2-(3,4-dichlorophenyl)-5-(4-ethoxyphenyl)-1-ethyl-6-methyl-4-oxo-pyridine-3-carboxylic acid] | 2 (2=21-40%) | 1 (1=0-20%) | 1 (1=0-20%) | 2 (2=21-40%) | 4 (4=61-80%) | 3 (3=41-60%) | 1 (1=0-20%) | 3 (3=41-60%) | 2 (2=21-40%) | 1 (1=0-20%) | 1 (1=0-20%) | 1 (1=0-20%) |
| CCOc1cccc(-c2c(C)n(CC)c(-c3ccc(Cl)c(Cl)c3)c(C(=O)O)c2=O)c1 [Compound 98, 2-(3,4-dichlorophenyl)-5-(3-ethoxyphenyl)-1-ethyl-6-methyl-4-oxo-pyridine-3-carboxylic acid] | 3 (3=41-60%) | 2 (2=21-40%) | 1 (1=0-20%) | 1 (1=0-20%) | 2 (2=21-40%) | 2 (2=21-40%) | 1 (1=0-20%) | 1 (1=0-20%) | 1 (1=0-20%) | 1 (1=0-20%) | 1 (1=0-20%) | 1 (1=0-20%) |
| CCn1c(C)c(-c2ccc(OC)c(OC)c2)c(=O)c(C(=O)O)c1-c1ccc(Cl)c(Cl)c1 [Compound 99, 2-(3,4-dichlorophenyl)-5-(3,4-dimethoxyphenyl)-1-ethyl-6-methyl-4-oxo-pyridine-3-carboxylic acid] | 4 (4=61-80%) | 2 (2=21-40%) | 2 (2=21-40%) | 2 (2=21-40%) | 3 (3=41-60%) | 2 (2=21-40%) | 3 (3=41-60%) | 4 (4=61-80%) | 4 (4=61-80%) | 3 (3=41-60%) | 2 (2=21-40%) | 1 (1=0-20%) |
| CCn1c(C)c(-c2ccc(OC)c(C)c2)c(=O)c(C(=O)O)c1-c1ccc(Cl)c(Cl)c1 [Compound 100, 2-(3,4-dichlorophenyl)-1-ethyl-5-(4-methoxy-3-methyl-phenyl)-6-methyl-4-oxo-pyridine-3-carboxylic acid] | 4 (4=61-80%) | 1 (1=0-20%) | 1 (1=0-20%) | 3 (3=41-60%) | 3 (3=41-60%) | 1 (1=0-20%) | 2 (2=21-40%) | 3 (3=41-60%) | 1 (1=0-20%) | 1 (1=0-20%) | 1 (1=0-20%) | 1 (1=0-20%) |
| CCn1c(C)c(-c2ccc(OC)c(Cl)c2)c(=O)c(C(=O)O)c1-c1ccc(Cl)c(Cl)c1 [Compound 101, 5-(3-chloro-4-methoxy-phenyl)-2-(3,4-dichlorophenyl)-1-ethyl-6-methyl-4-oxo-pyridine-3-carboxylic acid] | 4 (4=61-80%) | 2 (2=21-40%) | 2 (2=21-40%) | 2 (2=21-40%) | 3 (3=41-60%) | 2 (2=21-40%) | 3 (3=41-60%) | 3 (3=41-60%) | 3 (3=41-60%) | 2 (2=21-40%) | 2 (2=21-40%) | 1 (1=0-20%) |
| CCn1c(C)c(-c2ccc(OC)c(F)c2)c(=O)c(C(=O)O)c1-c1ccc(Cl)c(Cl)c1 [Compound 102, 2-(3,4-dichlorophenyl)-1-ethyl-5-(3-fluoro-4-methoxy-phenyl)-6-methyl-4-oxo-pyridine-3-carboxylic acid] | 4 (4=61-80%) | 2 (2=21-40%) | 3 (3=41-60%) | 1 (1=0-20%) | 3 (3=41-60%) | 3 (3=41-60%) | 3 (3=41-60%) | 4 (4=61-80%) | 3 (3=41-60%) | 2 (2=21-40%) | 1 (1=0-20%) | 3 (3=41-60%) |
